US20210347724A1, “METHOXYCHALCONE DERIVATIVES AND USES THEREOF” (The Board of Trustees of the Leland Stanford Junior …, priority 2020, published 2021)

Test: Pharmacokinetics study
Assay type: in vivo, Balb/c male mice
Conditions: male, Balb/c, mouse, ip; 50 mg/kg i.p., plasma
Method: Pharmacokinetics study. Mass quantification analysis was carried out using an Agilent 6490 iFunnel triple quadrupole (QQQ) mass spectrometer equipped with an Agilent 1290 infinity II UHPLC. ZORBAX C18 (Eclipse Plus, 2.1×50 mm, 1.8 μm particle size) was used as analytical UHPLC column. The mobile phase was composed of 50% mixture of water (with 0.1% formic acid and 4 mM ammonium formate) and acetonitrile (0.1% formic acid). The flow rate of mobile phase was set at 0.5 mL/min and column temperature was adjusted at 30° C. The electrospray ionization source was operated in positive ion mode. […] For SU086-CD3 the [M+H]^+ ions were monitored at m/z 347.1 as the precursor ion and a fragment at m/z 198.1 as the product ion. […] Blood was collected retro-orbitally at 5, 15, 30, 60, 120, 360 and 720 minutes after injection in three mice per time point. Blood plasma was separated via centrifugation at 7,000 RPM for 10 minutes. Each plasma sample was mixed with SU086-CD3 internal standard. 10 μL of plasma was mixed with 190 μL MS-grade acetonitrile and vortexed 30 seconds followed by 5 minutes incubation at RT. Mixture was centrifuged at 11,000 RPM for 15 min at 4° C. and supernatant was collected and further cleaned by re-centrifugation. Each protein-free plasma fraction (n=3, from three independent mouse) was resolved using the HPLC/MS MRM method as described above.

COc1cc(OC)c(C(=O)/C=C/c2cccc([N+](=O)[O-])c2)c(OC)c1 [SU086]
half-life: 60 min
